Measured values from the NIST ThermoML archive (doi:10.1021/je4004977).

Settings: for viscosity / mass density: 101.33 kPa; for viscosity / mass density / vapor or sublimation pressure: Liquid; for viscosity: Capillary tube (Ostwald / Ubbelohde) method; for surface tension liquid-gas: Drop volume; for mass density: Pycnometric method; for vapor or sublimation pressure: Closed cell (Static) method

CC(O)COC(C)COC(C)COC(C)CO (stereo not drawn) [2-[2-[2-(2-hydroxypropoxy)propoxy]propoxy]-1-propanol]
Settings | mass density [kg/m3] | surface tension liquid-gas [mN/m] | vapor or sublimation pressure [kPa] | viscosity [mPa·s]
288.15 K | – | – | – | 105.44
293.15 K | – | – | – | 67.81
298.15 K | 1019.6 | 34.3 | – | –
299.15 K | – | – | – | 44.89
303.15 K | – | – | – | 35.66
308.15 K | 1013.7 | 33.4 | – | 27.85
313.15 K | – | – | – | 22.48
318.15 K | 1007.9 | 32.6 | – | 17.97
323.15 K | – | – | – | 14.32
328.15 K | 1001.3 | 31.8 | – | 11.58
333.15 K | – | – | – | 9.39
338.15 K | 995.4 | – | – | 7.65
344.15 K | – | – | – | 6.04
348.15 K | 988.8 | 30.2 | – | 5.22
353.15 K | 985.1 | – | – | 4.42
358.15 K | 982.5 | – | – | 3.84
363.15 K | 979 | – | – | 3.38
368.15 K | 975.5 | 28.5 | – | 3
373.15 K | – | – | – | 2.62
378.15 K | – | 27.7 | – | 2.28
383.15 K | 965.4 | – | – | 1.9
388.15 K | – | – | – | 1.48
393.15 K | 958.7 | – | – | 1.02
398.15 K | – | 26.1 | – | –
403.15 K | 951.4 | – | – | –
408.15 K | – | 25.2 | – | –
409.85 K | – | – | 0.01 | –
413.15 K | 944.3 | – | – | –
418.15 K | – | 24.4 | – | –
423.15 K | 937 | – | – | –
428.15 K | – | 23.6 | – | –
433.15 K | 928.9 | – | – | –
438.15 K | – | 22.7 | – | –
443.15 K | 919.4 | – | – | –
448.15 K | – | 21.9 | – | –
458.15 K | – | 21.1 | – | –
462.55 K | – | – | 2.68 | –
468.15 K | – | 20.2 | – | –
480.15 K | – | – | 5.34 | –
486.15 K | – | – | 6.66 | –
492.15 K | – | – | 8.02 | –
500.15 K | – | – | 10.72 | –
507.15 K | – | – | 13.36 | –
513.15 K | – | – | 16.05 | –
518.15 K | – | – | 18.79 | –
522.15 K | – | – | 21.34 | –
527.15 K | – | – | 24.02 | –
530.15 K | – | – | 26.71 | –
537.15 K | – | – | 32.05 | –
543.15 K | – | – | 37.42 | –
545.15 K | – | – | 40.02 | –
550.15 K | – | – | 45.37 | –
554.15 K | – | – | 50.69 | –
556.15 K | – | – | 53.36 | –
560.15 K | – | – | 58.74 | –
564.15 K | – | – | 64.02 | –
567.15 K | – | – | 69.28 | –
570.15 K | – | – | 74.63 | –
575.15 K | – | – | 83.34 | –
582.15 K | – | – | 101.02 | –
